Values of other authors as cited in patent US20090233840A1, “Modified Dynorphin Expression in Animals and Identification of Compounds for Treatment of Obesity and Diabetes” (priority 2004, published 2009).

Tests used:
[1] = not affected by naloxone or norBNI
[2] = tested on: cultured cortical cells from Sprague Dawley rats; details: comparable to that induced by NMDA; resistant to naloxone
[3] = intracerebroventricularly
[4] = administered ICV

## Dyn A(1-13) (YGGFLRRIRPKLK; Dynorphin A(1-13); UniProt P01213 207-219, looked up, fragment)
[1]
  potency in writhing assay: very potent

## dynorphin A (2-17)
[2]
  intracellular calcium concentration: increase in intracellular calcium concentration

## dynorphin A (YGGFLRRIRPKLKWDNQ; Dynorphin A(1-17); UniProt P01213 207-223, looked up) [[Leu]-enkephalin-containing opioid peptide encoded by the preprodynorphin gene]
[3]
  analgesic effect: moderate analgesic effect
[4]
  analgesic efficacy: ineffective
